Earlier results as cited in patent EP4140474A1, “NUT[…] THE REDUCTION OF OSTE[…] AND INFLAMMATION” (Theracell Advanced Biotechnology S.A., priority 2021, dated 2023).

Columns and labels:
[1] = molecular target: MMP13 (Homo sapiens, UniProt P45452); conditions: selective inhibitor of MMP13
[2] = molecular target: lipoxygenase

Row | SMILES | IC50 [1] [nM] | IC50 [2] [nM]
1 | O=C(/C=C/c1ccc(O)c(O)c1)O[C@H](Cc1ccc(O)c(O)c1)C(=O)O [rosmarinic, rosmarinic acid] | 2900 | –
2 | Oc1ccc(C=Cc2cc(O)cc(O)c2)cc1 [resveratrol] | – | 2700
